Results reported in US11708348B2, “Protease inhibitors for treatment of coronavirus infections” (The Scripps Research Institute, priority 2021, dated 2023).

Test system: SARS-CoV-2 strain USA-WA1/2020
Test: microbe, parasite or virus in culture
Format: cell-based
Settings: Severe acute respiratory syndrome coronavirus 2, HeLa-ACE2, 24 h, HeLa-ACE2 cells, SARS-CoV-2 infection, 24 h; read-out: EC50, uM (Hela)

| SMILES | EC50 [µM] |
| --- | --- |
| CC(C)C[C@H](NS(=O)(=O)c1ccc2c(ccn2C)c1)C(=O)N[C@@H](C[C@@H]1CCNC1=O)C(=O)COc1c(F)c(F)cc(F)c1F [Compound 765, (S)-4-methyl-2-((l-methyl-1H-indole)-5-sulfonamido)-N-((S)-3-oxo-1-((S)-2-oxopyrrolidin-3-yl)-4-(2,3,5,6-tetrafluorophenoxy)butan-2-yl)pentanamide] | < 0.05 |
| CCC[C@@H](O)C(=O)N1CC2(CC2)C[C@H]1C(=O)N[C@@H](C[C@@H]1CCNC1=O)C(=O)COC(F)(F)F [Compound 766, (S)-5-((R)-2-hydroxypentanoyl)-N-((S)-3-oxo-1-((S)-2-oxopyrrolidin-3-yl)-4-(trifluoromethoxy)butan-2-yl)-5-azaspiro[2.4]heptane-6-carboxamide] | 0.05 to 0.2 |
| CC(C)C[C@@H](O)C(=O)N[C@@H](CC(C)C)C(=O)N[C@@H](C[C@@H]1CCNC1=O)C(=O)COC(F)(F)F [Compound 767, (R)-2-hydroxy-4-methyl-N-((S)-4-methyl-1-oxo-1-(((S)-3-oxo-1-((S)-2-oxopyrrolidin-3-yl)-4-(trifluoromethoxy)butan-2-yl)amino)pentan-2-yl)pentanamide] | 0.2 to 0.5 |
| O=C(N[C@@H](C[C@@H]1CCNC1=O)C(=O)COC(F)(F)F)C1CCCCCN1C(=O)[C@@H](O)c1ccccc1 (stereo partly drawn) [Compound 768, l-((S)-2-hydroxy-2-phenylacetyl)-N-((S)-3-oxo-1-((S)-2-oxopyrrolidin-3-yl)-4-(trifluoromethoxy)butan-2-yl)azepane-2-carboxamide] | 0.05 to 0.2 |
| O=C(N[C@@H](C[C@@H]1CCNC1=O)C(=O)COC(F)(F)F)C1CCCCN1C(=O)[C@@H](O)c1ccccc1 (stereo partly drawn) [Compound 769, l-((S)-2-hydroxy-2-phenylacetyl)-N-((S)-3-oxo-1-((S)-2-oxopyrrolidin-3-yl)-4-(trifluoromethoxy)butan-2-yl)piperidine-2-carboxamide] | < 0.05 |
| CC(C)C[C@@H](O)C(=O)N1CC2(CCC2)CC1C(=O)N[C@@H](C[C@@H]1CCNC1=O)C(=O)COC(F)(F)F (stereo partly drawn) [Compound 770, 6-((R)-2-hydroxy-4-methylpentanoyl)-N-((S)-3-oxo-1-((S)-2-oxopyrrolidin-3-yl)-4-(trifluoromethoxy)butan-2-yl)-6-azaspiro[3.4]octane-7-carboxamide] | 0.05 to 0.2 |
| CC(C)C[C@@H](O)C(=O)N1C[C@@H](CC2CCC2)C[C@H]1C(=O)N[C@@H](C[C@@H]1CCNC1=O)C(=O)COC(F)(F)F [Compound 772, (2S,4S)-4-(cyclobutylmethyl)-1-((R)-2-hydroxy-4-methylpentanoyl)-N-((S)-3-oxo-1-((S)-2-oxopyrrolidin-3-yl)-4-(trifluoromethoxy)butan-2-yl)pyrrolidine-2-carboxamide] | < 0.05 |
| O=C1NCC[C@H]1C[C@H](NC(=O)[C@@H]1CC2(CC2)CN1C(=O)COc1ccc(OC(F)(F)F)cc1)C(=O)COC(F)(F)F [Compound 773, (S)-N-((S)-3-oxo-1-((S)-2-oxopyrrolidin-3-yl)-4-(trifluoromethoxy)butan-2-yl)-5-(2-(4-(trifluoromethoxy)phenoxy)acetyl)-5-azaspiro[2.4]heptane-6-carboxamide] | < 0.05 |
| CC(C)C[C@@H](O)C(=O)N1CC2(CC2)C[C@H]1C(=O)N[C@@H](C[C@@H]1CCCNC1=O)C(=O)COc1c(F)c(F)c(F)c(F)c1F [Compound 779, (S)-5-((R)-2-hydroxy-4-methylpentanoyl)-N-((S)-3-oxo-1-((S)-2-oxopiperidin-3-yl)-4-(perfluorophenoxy)butan-2-yl)-5-azaspiro[2.4]heptane-6-carboxamide] | < 0.05 |
| O=C1NCC[C@H]1C[C@H](NC(=O)[C@@H]1C[C@@H](c2ccccc2)CN1C(=O)[C@@H](O)c1ccccc1)C(=O)COC(F)(F)F [Compound 780, (2S,4S)-1-((S)-2-hydroxy-2-phenylacetyl)-N-((S)-3-oxo-1-((S)-2-oxopyrrolidin-3-yl)-4-(trifluoromethoxy)butan-2-yl)-4-phenylpyrrolidine-2-carboxamide] | < 0.05 |
